In PubChem BioAssay AID179 (DTP/NCI, 2004) one finds EC50, IC50 and outcome data, which are given here for 26 molecules.

What is called EC50 is the midpoint of the concentration-response curve. By IC50 is commonly meant the concentration that gives 50% inhibition. A low value points to inhibition by little substance.

The assay relates to CEM cells HIV-1 protection, formazan growth assay. The experiment in a line: NCI AIDS Antiviral Assay. The conditions noted are these: for IC50: measured here: growth of uninfected CEM cells. An outline of the steps:
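Screen of anti-HIV-1 activity in human CEM cells using a formazan-based growth measurement at five drug concentrations. Hits with 50% or greater protection were repeated, and confirmation required reproducible complete protection.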

Active and inactive are the calls of the source.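 The calls were made as follows: active = compounds giving half or more protection of infected cells from virus-caused growth loss, again on retest; inactive = the rest.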 Where a SMILES comes first, the peptide text is derived from it. Bridges are numbered along the chain shown (N, C = ends). Roman numbers before positions name the chains, in order.

Turning to `CN(C)S(=O)(=O)N1C(=O)c2ccccc2C1=O`, the EC50 is more than 102 µM and the IC50 was more than 102 µM.
`Cn1ccc(-c2cn(C)c3ccnn3c2=O)n1`: the EC50 was more than 200 µM and the IC50 is more than 200 µM.
Take `C/C(O)=C(/C=N/C(N)=S)C(N)=O`: the result was inactive.
In the case of `OC1(c2ccccc2)CC2CCC(C1)N2CCc1ccccc1` (stereo unspecified), the EC50 is more than 200 µM and the IC50 came to 102 µM.
`CN(C(=O)C12C3(C(=O)O)C4C5(C(=O)O)C3C1(C(=O)O)C5C42C(=O)O)C(C)(C)C` (stereo unspecified): the EC50 was more than 200 µM and the IC50 was more than 200 µM.
In the case of `CC1(C)C(=O)CC[C@@]2(C)C1CC[C@]1(C)C2CC=C2[C@@H]3C[C@](C)(C(=O)O)CC[C@]3(C)CCC21C` (stereo partly specified), the EC50 is more than 200 µM and the IC50 turned out to be 95.5 µM.
Turning to `Brc1cccc(C2SCc3nc4ccccc4n32)c1` (stereo unspecified), the outcome was inactive.
Consider `COc1ccc(O[C@H](CO)C[C@@H]2COC(C)(C)O2)cc1`, for which the EC50 is more than 200 µM and the IC50 was more than 200 µM.
For the molecule `C[C@@H]1S[C@H](c2c(F)cccc2Cl)n2c1nc1ccccc12`, the EC50 is 3.55 µM and the IC50 stood at 12.9 µM.
Consider `COc1cc(C[C@H]2C(=O)OCC2Cc2ccc(OC)c(OC)c2)ccc1O` (stereo partly specified), for which the EC50 was more than 200 µM and the IC50 amounted to 5.5 µM.
Consider `CC1(CN2CCCCC2)COC(c2ccccc2)(c2ccccc2)OC1`, for which the EC50 is more than 200 µM and the IC50 worked out at 29.5 µM.
Turning to `CCCC/C(C)=N/NC(N)=S`, the outcome was inactive.
`N#CCCN(CCC#N)c1ccc(/C=C(/NC(=O)c2cc([N+](=O)[O-])ccc2Cl)C(=O)N=[N+]=[N-])cc1`: the EC50 is more than 20.4 µM and the IC50 is more than 20.4 µM.
Consider `CCOC(=O)N1C2C=C(C)C(ON2C(=O)c2ccccc2)C2C(C)C(=O)N21` (stereo unspecified), for which the EC50 was more than 355 µM and the IC50 was more than 355 µM.
Take `CC(NC(=O)C(N)CSSCC(N)C(=O)NC(C)C(=O)O)C(=O)O` (stereo not drawn) (I: H-Cys-Ala-OH / II: H-Cys-Ala-OH; disulfide I:1-II:1; configuration not given here): the EC50 is more than 178 µM and the IC50 is more than 178 µM.
With `CC1=CCCC2C(C=O)(C1)CC(C)C2(CO)CC/C(=C/CO)CO` (stereo unspecified), the outcome was inactive.
For `Cc1cccc2c1Oc1cc(Cl)ccc1C2NC(=O)CCN1CCN(CCO)CC1` (stereo unspecified), the EC50 was more than 200 µM and the IC50 stood at 13.5 µM.
Consider `N#CCCn1[nH]c(=O)c(Cl)c(Cl)c1=O`, for which the EC50 is more than 1070 µM and the IC50 amounted to 5.62 µM.
Consider `N=C1/C(=C/c2ccc(F)cc2)C(=O)N=C2SC=NN12`, for which the EC50 was more than 200 µM and the IC50 was more than 200 µM.
As to `CCOP(=S)(N/N=C\C(C)(C)C1CCCCC1)OCC`, the EC50 was more than 200 µM and the IC50 amounted to 30.9 µM.
With `COc1ccc2[nH]cc(CN3CCC(CO)(c4ccccc4)CC3)c2c1`, the EC50 was more than 200 µM and the IC50 was 91.2 µM.
Regarding `CC(=O)OC1(Sc2ccccc2)CC2[C@H]3COC(C)(C)O[C@H]3CC[C@@]2(C)CC1=O` (stereo partly specified), the outcome was inactive.
`COc1ccc(C2c3c(-c4ccccc4)nn(-c4ccccc4)c3Oc3ncn4nc(CC#N)nc4c32)cc1OC` (stereo unspecified): the EC50 is more than 200 µM and the IC50 was more than 200 µM.
For the molecule `C(=C/C1CCCOC1)/CCc1ccccc1` (stereo unspecified), the result was inactive.
For the molecule `O=S(=O)(O)c1ccc(O)c(N=Nc2ccc(S(=O)(=O)c3ccc(N=Nc4cc(S(=O)(=O)O)ccc4O)cc3)cc2)c1`, the EC50 is more than 100 µM and the IC50 is more than 100 µM.
As for `CC(C)CCCC(C)C1CCC2C3CC[C@H]4C[C@@H](CCC=C(c5cc(Cl)c(OCc6cccc(B7OC(C)(C)C(C)(C)O7)c6)c(C(=O)OCc6cccc(B7OC(C)(C)C(C)(C)O7)c6)c5)c5cc(Cl)c(OCc6cccc(B7OC(C)(C)C(C)(C)O7)c6)c(C(=O)OCc6cccc(B7OC(C)(C)C(C)(C)O7)c6)c5)CC[C@]4(C)C3CC[C@]12C` (stereo partly specified), the EC50 was more than 50.1 µM and the IC50 was more than 50.1 µM.
